“Also recorded” adds a separate entry of the source.
Assays:
Format in all cases: in vivo
hSOD1^G93A mice [1] = assay: Hind limb grip strength test in hSOD1^G93A mice on triheptanoin diet
Method: (§1) All experiments were approved by the University of Queensland's Animal Ethics Committee and followed the guidelines of the Queensland Animal Care and Protection Act 2001. All efforts were made to minimize the suffering and the number of animals used. Wild-type and hSOD1^G93A mice (B6.Cg-Tg(SOD1*G93A)1 Gur/J, stock no. 004435, Jackson laboratory, Maine, USA), were generated by mating hSOD1^G93A males with C57B/L6 wild-type females (University of Queensland). Mice were housed in a 12 hour light, 12 hour dark cycle, and had free access to food and water. Experimenters were blinded to animal genotype (until the mice started expressing the ALS phenotype) and dietary interventions.
(§2) Immediately after weaning, mice were placed on either a standard diet (SF11-027, Specialty Feeds, WA, AUS) or a matched diet (SF11-028, Specialty Feeds) in which 35% of the calories were from triheptanoin oil (Sasol, Germany). All diets were matched in protein, mineral, antioxidant and vitamin content relative to their caloric densities (Thomas et al., 2012). Triheptanoin replaced sucrose, some of the complex carbohydrates and long chain fats in the diet.
Animals underwent behavioral testing approximately 3-4 hours into the light cycle. All behavioral testing was conducted in an environment with minimal stimuli so as to minimize any possible effects caused by changes in external stimuli. Animals were weighed before every test session. Mice were observed, and disease progression tracked and graded according to a neurological score sheet to ensure that any non-ALS related deaths were excluded from the study. The neurological score was adapted from criteria developed at the ALS therapy development institute (Gill et al., 2009). In accordance with ethical requirements, hSOD1^G93A mice that became too weak to reach the food hoppers were provided with wet chow on the floor of the cages. The endpoint of the study was defined as the mouse being unable to right itself within 15 seconds after being placed on its back. Upon reaching end-stage or 25 weeks of age, transgenic mice and their respective wild-type littermates were euthanized with an overdose of pentobarbital (120 mg/kg, i.p., Provet, Australia). Tissues, including the m. gastrocnemius and tail, were collected for subsequent analysis. […]
(§3) Hind limb grip strength tests were conducted twice a week using a T-bar force transducer (Ugo Basile, Italy). […] The reading on the force transducer was taken only if both hind limbs released the bar at the same time. The average of 10 trials per mouse was recorded each training session. To compare time points of grip strength loss, the time point where a loss of more than 30% of the combined mean grip strength of week 9 to 13 was recorded, if the subsequent 3 measurements were ≦70% of the original average strength.

wild-type mice = assay: Hind limb grip strength test in wild-type mice on triheptanoin diet; settings: triheptanoin n=15 vs control n=12
Method: as §1, with “interventions. […]” for “interventions.”
as §3

hSOD1^G93A mice [2] = assay: Rotarod test, onset of balance loss
Description: as §2
(§4) Animals underwent behavioral testing approximately 3-4 hours into the light cycle. All behavioral testing was conducted in an environment with minimal stimuli so as to minimize any possible effects caused by changes in external stimuli. Animals were weighed before every test session. Mice were observed, and disease progression tracked and graded according to a neurological score sheet to ensure that any non-ALS related deaths were excluded from the study. The neurological score was adapted from criteria developed at the ALS therapy development institute (Gill et al., 2009). In accordance with ethical requirements, hSOD1^G93A mice that became too weak to reach the food hoppers were provided with wet chow on the floor of the cages. […]
The rotarod tests were conducted with 10 repeats once a week using a rotarod designed for mice (Ugo Basile, Italy). […] The time at which the animal fell off was recorded. […]

hSOD1^G93A mice [3] = assay: Body weight and onset of body weight loss in hSOD1^G93A mice
Description: as §2
as §4, with “cages. The endpoint of the study was defined as the mouse being unable to right itself within 15 seconds after being placed on its back.” for “cages.”

hSOD1^G93A mice [4] = assay: Survival, days taken to reach end-stage
Description: as §2
as §4, with “cages. The endpoint of the study was defined as the mouse being unable to right itself within 15 seconds after being placed on its back.” for “cages.”

hSOD1^G93A mice [5] = assay: Motor neuron counting (stereological, L2 to L5); settings: hSOD1^G93A mice at 70 days
Method: Mice were fed with control or triheptanoin diet from 35 days until 70 days of age, when mice were anesthetized with pentobarbital (100 mg/kg i.p.), perfused with 0.9% saline followed by 4% paraformaldehyde. Spinal cords were removed and further fixed in 4% paraformaldehyde and subsequently embedded in OCT compound and serial sections of 16 μm were cut from lumbar vertebrae. Sections were washed in cold PBS and stained with 0.1% thionin in acetate buffer (pH3.4). The motor neurons were counted using stereological method as previously described (Banks et al., 2001; 2003; Forgarty et al., 2013). Briefly, motor neurons in the lateral motor column (LMC) from one side of the spinal cord were counted and only neurons that are large in size with darkly stained cytoplasm, pale nucleus and darkly stained nucleoli were counted (Clarke and Oppenheim, 1995). Every 10th section from lumbar 2 to lumbar 5 regions was counted to get the total motor neuron count which was then divided by the number of sections counted and multiplied by the total number of sections containing the LMC.

[6] = system: Pdha1, Ogdh, Sdha and Mut mRNA in gastrocnemius muscle of hSOD1^G93A mice; assay: Quantitative real time PCR of metabolic genes in gastrocnemius muscle; settings: 10 week old hSOD1^G93A mice, triheptanoin feeding
Description: After euthanasia, the gastrocnemius muscle was quickly removed and frozen in liquid nitrogen. To extract RNA, muscle samples were pulverized in liquid nitrogen with a cold mortar and pestle, dissolved with TRI reagent (Life Technologies, CA, USA) and extracted according to the manufacturer's instructions. Contaminating DNA was removed by DNase I treatment and cDNA was synthesized using the Tetro cDNA synthesis kit (Bioline, London, UK) according to the manufacturer's instructions.
Expression of several metabolic genes was assayed (Gapdh, Pdha1, Ogdh, Sdha, Pcx, Gpt1, Gpt2, Pcca, Pccb and Mut) by quantitative real time PCR. All primers pairs (Table 1) were evaluated for efficiency using a 4 fold serial dilution series of muscle cDNA. The derived slope of each primer pair was used to calculate the efficiency by applying the formula, […]. Reactions consisted with diluted cDNA, 5 μl of SYBR Green Mastermix and 8 μM of forward and reverse primers each, and were amplified after an initial hot start. Conditions for cycling and the melt curve were identical to those described for quantitative genotyping. Samples without reverse transcriptase treatment were assayed to ensure that samples were free from DNA contamination. The fold expression (ΔCT) of the gene of interest (goi) relative to the geometric mean of housekeeping genes (Tbp, B2m and Hmbs) were calculated with a formula adapted from (Vandesompele et al., 2002) taking into consideration the individual efficiencies (E) of each primer pair.

## CCCCCCC(=O)OCC(COC(=O)CCCCCC)OC(=O)CCCCCC [triheptanoin, 1,3-di(heptanoyloxy)propan-2-yl heptanoate]
hSOD1^G93A mice [1]; hSOD1^G93A mice on both diets
  hind limb grip strength (upper limit over time): ≤ 400 mN
hSOD1^G93A mice [1]; high copy number (19-24) hSOD1^G93A mice, diet with 35% of calories from triheptanoin vs control diet (n=8 vs n=5)
  onset of hind limb grip strength loss delayed by: 2.8 weeks
hSOD1^G93A mice [1]; high copy number hSOD1^G93A mice, Bonferroni post-hoc p<0.05
  hind limb grip strength at 18 and 19.5 weeks of age vs control diet: higher hind limb grip strength; also recorded: significantly higher grip strength
hSOD1^G93A mice [1]; high copy number hSOD1^G93A mice, triheptanoin diet vs control diet, p=0.024
  area under the curve for grip strength over time, increase relative to control diet: 38%
wild-type mice
  difference in mean hind limb grip strength vs control diet: no observable difference
hSOD1^G93A mice [2]; hSOD1^G93A mice, triheptanoin vs control diet, p=0.0016
  time of onset of loss of balance delayed by: 1.6 weeks
hSOD1^G93A mice [2]; triheptanoin fed vs control fed SOD1^G93A mice, p=0.0016 (FIG. 3F legend)
  onset of balance loss on the rota-rod delayed by: 13 days
hSOD1^G93A mice [3]; hSOD1^G93A mice, triheptanoin feeding vs control, p=0.007
  onset of body weight loss delayed by: 1.6 weeks
hSOD1^G93A mice [3]; triheptanoin fed (n=8) vs control fed (n=5) SOD1^G93A mice, p=0.0076 (FIG. 3H legend)
  onset of body weight loss delayed by: 11 days
hSOD1^G93A mice [4]; small study
  effect on survival: did not alter survival
hSOD1^G93A mice [4]; triheptanoin n=7, mean±SEM, p=0.653 vs control
  number of days taken to reach end-stage: 174.9 ± 3.5 days
hSOD1^G93A mice [5]; triheptanoin diet from 35 days (n=4), control diet 37% loss
  loss of motor neurons between L2 and L5 vs wild type: 21%
hSOD1^G93A mice [5]; triheptanoin fed, n=4
  motor neuron numbers compared with wild type mice: not significantly different from wild type mice
[6]
  protection from reduced expression of 2-oxo-glutarate dehydrogenase (Ogdh) mRNA: not
  protection from reduced expression of methylmalonyl mutase (Mut) mRNA: not
  protection from reduced expression of pyruvate dehydrogenase (Pdha1) mRNA: protected
  protection from reduced expression of succinate dehydrogenase (Sdha) mRNA: protected

Reference: US9833430B2, “Neurodegenerative disorders and methods of treatment and diagnosis thereof” (The University of Queensland, priority 2013, dated 2017)
